Measurements from ChEMBL document CHEMBL5154728, “Design and synthesis of novel quinazolinone derivatives as anti-HBV agents with TLR8 agonist effect” (Eur J Med Chem, 2022).

Experiments:
[1] = Cytotoxicity against human HepG2 2.2.15 cells infected with Hepatitis B virus assessed as reduction in cell growth by CCK8 assay; format: toxicity, cell-based
[2] = Selectivity index, ratio of CC50 for human HepG2.2.2.15 cells to IC50 for Hepatitis B virus infected in human HepG2.2.2.15 cells; format: toxicity, cell-based; conditions: read-out: Selectivity Index
[3] = Antiviral activity against Hepatitis B virus infected in human HepG2 2.2.15 cells assessed as inhibition of DNA replication; format: functional, cell-based
Hepatitis B virus [4] = test: Antiviral activity against wild type Hepatitis B virus infected in human HepG2.2.2.15 cells assessed as inhibition of DNA replication at 1 uM incubated for 72 hrs by RT PCR analysis; format: functional
[5] = Antiviral activity against lamivudine/entecavir- resistant Hepatitis B virus infected in human HepG2 A64 cells assessed as inhibition of DNA replication; format: functional, cell-based
Hepatitis B virus [6] = test: Antiviral activity against lamivudine/entecavir-resistant Hepatitis B virus infected in human HepG2 A64 cells assessed as inhibition of DNA replication at 1 uM incubated for 72 hrs by RT PCR analysis; format: functional, organism-based; conditions: for IC50: HepG2.A64, 72 h; for inhibition at 1 µM: HepG2.A64, dose 1 µM, time 72 hrs
[7] = biological target: T1, Toll-like receptor 8 (Homo sapiens) (UniProt Q9NR97); test: Agonist activity at human TLR8 expressed in HEK293T cells co-transfected with NFKappaB luciferase and renilla plasmids assessed as NF-kappaB activation measured after 48 hrs by dual-luciferase reporter gene assay; format: cell-based; conditions: filed as agonist, DDE = dose-dependent effect
T1 sequence (whole entry): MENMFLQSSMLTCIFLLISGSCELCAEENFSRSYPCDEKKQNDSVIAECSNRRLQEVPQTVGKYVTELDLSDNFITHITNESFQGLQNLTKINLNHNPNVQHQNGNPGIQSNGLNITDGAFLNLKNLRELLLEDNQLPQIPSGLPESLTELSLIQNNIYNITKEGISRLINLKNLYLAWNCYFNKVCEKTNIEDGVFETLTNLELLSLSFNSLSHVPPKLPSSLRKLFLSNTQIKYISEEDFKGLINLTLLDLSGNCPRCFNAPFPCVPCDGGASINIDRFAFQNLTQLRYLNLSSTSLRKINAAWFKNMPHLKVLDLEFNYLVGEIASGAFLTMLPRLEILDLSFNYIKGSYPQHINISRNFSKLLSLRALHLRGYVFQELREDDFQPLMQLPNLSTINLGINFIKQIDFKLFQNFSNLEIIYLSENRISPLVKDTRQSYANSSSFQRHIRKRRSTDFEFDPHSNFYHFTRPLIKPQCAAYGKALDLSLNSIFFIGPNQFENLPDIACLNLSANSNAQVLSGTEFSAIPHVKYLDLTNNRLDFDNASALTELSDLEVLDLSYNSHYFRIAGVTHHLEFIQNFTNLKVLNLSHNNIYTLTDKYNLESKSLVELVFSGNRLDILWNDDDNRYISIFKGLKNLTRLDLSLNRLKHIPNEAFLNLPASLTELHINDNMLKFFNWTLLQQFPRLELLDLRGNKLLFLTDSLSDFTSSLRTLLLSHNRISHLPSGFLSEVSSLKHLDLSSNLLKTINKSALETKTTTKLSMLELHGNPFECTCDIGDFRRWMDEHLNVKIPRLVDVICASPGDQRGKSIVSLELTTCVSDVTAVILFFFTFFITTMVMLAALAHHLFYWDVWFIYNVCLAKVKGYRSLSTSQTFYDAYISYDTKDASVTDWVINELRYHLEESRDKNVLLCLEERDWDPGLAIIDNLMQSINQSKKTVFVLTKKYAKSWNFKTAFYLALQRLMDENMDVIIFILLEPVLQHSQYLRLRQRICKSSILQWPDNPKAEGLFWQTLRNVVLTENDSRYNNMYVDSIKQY

[8] = Selectivity index, ratio of CC50 for human HepG2.2.2.15 cells to IC50 for lamivudine/entecavir-resistant Hepatitis B virus infected in human HepG2 A64 cells; format: toxicity, cell-based; conditions: HepG2.2.2.15 cells (CC50), read-out: Selectivity Index

| Compound | CC50 [1] [nM] | selectivity ratio [2] | IC50 [3] [nM] | also measured |
| --- | --- | --- | --- | --- |
| Nc1nccc(OCCCOc2ccc3nc(SCc4ccccc4)n(Cc4ccccc4)c(=O)c3c2)n1 | > 10000 | – | – | – |
| CN1CCN(CCCOc2ccc3nc(SCc4cccc(F)c4)n(Cc4ccco4)c(=O)c3c2)CC1 | 4220 | > 4.26 | 990 | – |
| Nc1nccc(OCCOc2ccc3nc(SCc4ccccc4)n(Cc4ccco4)c(=O)c3c2)n1 | 1250 | – | – | – |
| COc1ccccc1CSc1nc2ccc(OCCCOc3ccnc(N)n3)cc2c(=O)n1Cc1ccco1 | > 10000 | > 66.7 | 150 | inhibition at 1 µM (Hepatitis B virus [4]): 80.9%; IC50 [5]: 100 nM; IC50 (Hepatitis B virus [6]): 100 nM; inhibition at 1 µM (Hepatitis B virus [6]): 77.3%; Activity [7]: Dde; selectivity ratio [8]: > 100 |
| Nc1nccc(OCCCCOc2ccc3nc(SCc4ccccc4)n(Cc4ccco4)c(=O)c3c2)n1 | > 10000 | – | – | – |
| Nc1nccc(OCCCOc2ccc3nc(SCc4cccc(F)c4)n(Cc4ccccc4)c(=O)c3c2)n1 | > 10000 | – | – | – |
| CCN(CC)CCOc1ccc2nc(SCc3ccccc3)n(Cc3cccs3)c(=O)c2c1 | > 10000 | 22.9 | 830 | – |
| COc1ccccc1CSc1nc2ccc(OCCCN3CCC(O)CC3)cc2c(=O)n1Cc1ccco1 | > 10000 | – | – | – |
| COc1ccccc1CSc1nc2ccc(OCCCN3CCN(C)CC3)cc2c(=O)n1Cc1ccco1 | > 10000 | – | – | – |
| CN1CCN(CCCOc2ccc3nc(SCc4ccccc4)n(Cc4ccco4)c(=O)c3c2)CC1 | > 10000 | > 15.9 | 630 | – |
| Nc1ccn([C@@H]2CS[C@H](CO)O2)c(=O)n1 [LAMIVUDINE] | > 100000 | > 1000 | < 100 | IC50 [5]: > 100000 nM |
| Nc1nccc(OCCCOc2ccc3nc(SCc4ccccc4)n(Cc4ccco4)c(=O)c3c2)n1 | > 10000 | > 32.2 | 310 | inhibition at 1 µM (Hepatitis B virus [4]): 79.3%; IC50 [5]: 210 nM; IC50 (Hepatitis B virus [6]): 240 nM; inhibition at 1 µM (Hepatitis B virus [6]): 75.3%; selectivity ratio [8]: > 41.7 |
| Nc1nccc(OCCCOc2ccc3nc(SCc4ccc(F)cc4)n(Cc4ccccc4)c(=O)c3c2)n1 | > 10000 | – | – | – |
| O=c1c2cc(OCCCN3CCC(O)CC3)ccc2nc(SCc2ccccc2)n1Cc1ccco1 | > 10000 | > 14.3 | 700 | – |
| O=c1c2cc(OCCCN3CCC(O)CC3)ccc2nc(SCc2cccc(F)c2)n1Cc1ccco1 | 1830 | > 2.17 | 870 | – |
| Nc1nccc(OCCCOc2ccc3nc(SCc4ccccc4)n(CC4CCCCC4)c(=O)c3c2)n1 | > 10000 | – | – | – |
| Nc1nccc(OCCCOc2ccc3nc(SCc4ccccc4)n(Cc4cccs4)c(=O)c3c2)n1 | > 10000 | – | – | – |
| O=c1c2cc(OCCCN3CCC(O)CC3)ccc2nc(SCc2ccc(F)cc2)n1Cc1ccco1 | > 10000 | – | – | – |
| CN1CCN(CCCOc2ccc3nc(SCc4ccc(F)cc4)n(Cc4ccco4)c(=O)c3c2)CC1 | 2900 | – | – | – |
